{"source": "patent US20260217699A1", "about": "“BERBERINE TAUROURSODEOXYCHOLATE COMPOSITIONS AND METHODS THEREOF” (SHENZHEN HIGHTIDE BIOPHARMACEUTICAL LTD., priority 2023, published 2026)", "test_system": "6-OHDA Stereotactic Injection Induced PD Rats", "assay": "Tolerability / general condition observation in PD rat model", "type": "in vivo, Sprague-Dawley rats", "protocol": "In this study, 16 Sprague Dawley (SD) male rats 180g-220g were used to establish a PD model by stereotactic unilateral injection of 6-OHDA in the substantia nigra (SN) and striatum (Str) brain areas after one week of acclimatization feeding and were randomly divided into 2 groups of 8 rats each. One group was dosed with the test compound BTUDC 500 mg/kg (QD, p.o.) and the other group was the Model group, which was given an equal volume of 0.5% CMC-Na (QD, p.o.) as the test compound group. The animals were administered once a day for 21 consecutive days starting from the second day after modeling to evaluate the tolerability and therapeutic potential of BTUDC in the 6-OHDA PD model.\nThe body weight and food intake of the rats were collected and recorded every day, and the cage side observation for the animals was carried out.\nExperimental Methods: Seventy 180-220g SD male rats were selected and fed for one week for accumulation, and the PD model was established by stereotactic unilateral injection of 6-OHDA in the Substantia Nigra (SN) and Striatum (Str) regions and were randomly divided into five groups according to their body weights including Madopar group (Madopar, 50 mg/kg), BTUDC-L group (BTUDC, 100 mg/kg), BTUDC-M group (BTUDC, 500 mg/kg), and BTUDC-H group (BTUDC, 1000 mg/kg), with 10 animals in each group. Another 10 SD male rats were taken for sham operation (only 4 μL of 0.9% NS containing 0.02% ascorbic acid was given to the SN and Str brain regions during modeling) as the Sham group. The drug was administered by gavage once daily continuously for 21 days starting on the second day of modeling (first day of dosing, D1). General observation was made during the dosing period. At the end of the administration, the test articles were evaluated for tolerance in this model and in behavioral apomorphine—asymmetric rotation test, beam test, rotarod test and grip strength test, immunofluorescence staining (TH, Ibal), and cerebrospinal fluid inflammatory factor assays to evaluate the pharmacodynamic effects of the test articles. Inflammatory factors tested included interleukin 6 (1L-6), inflammatory factor […], Tumor Necrosis Factor alpha (TNF-α), inflammatory assays were done in a total of 4 groups included Sham, Model, Madopar and BTUDC-H groups.\nDosing volume: 10 mL/kg • 1. General observation: During the period of drug administration, body weight, food intake test and cage side observation were conducted […]. • 2. Behavioral test: After 21 days of administration, behavioral test was carried out on the following day. • 3. Histochemical test: After the behavioral test, the cerebrospinal fluid from each animal (N=10) was collected, centrifuged to collect the supernatant, and stored at −80° C. for Elisa test (IL-6, IL-1β, TNF-α), then the animals in each group (N=5) were randomly selected to take the modeling side of the striatum for the detection of neurotransmitters, and the rest of them (N=5) were subjected to cardiac perfusion, which was performed by the process of perfusion, fixation, sedimentation and slicing for immunofluorescence staining and photographed, and the number or area of signals were counted by ImageJ software. • 4. Data analysis: After the data were summarized and counted, they were analyzed using SPSS data statistics software (one-way ANOVA, p<0.05 was considered a significant difference), and images were plotted according to the results of SPSS analysis using Graph Pad software. […]", "key": {"[1]": {"settings": "up to 1000 mg/kg p.o. Qd 21 days"}}}
{"smiles": "COc1ccc2cc3[n+](cc2c1OC)CCc1cc2c(cc1-3)OCO2.C[C@H](CCC(=O)NCCS(=O)(=O)[O-])[C@H]1CC[C@H]2[C@@H]3[C@@H](O)C[C@@H]4C[C@H](O)CC[C@]4(C)[C@H]3CC[C@]12C", "note": "[BTUDC, Berberine tauroursodeoxycholate]", "values": [{"measurement": "tolerability in the PD rat model", "setting": "500 mg/kg QD p.o. 21 days", "result": "well tolerated"}, {"measurement": "mortality, moribundity, abnormal animal state", "setting": "500 mg/kg QD p.o. 21 days, vs model group", "result": "no Test Compound-related mortality or moribundity nor abnormal animal state"}, {"measurement": "body weight and food intake vs model control group", "setting": "500 mg/kg QD p.o. 21 days, whole study period", "result": "no obvious differences"}, {"measurement": "body weight growth or food intake compared with other groups of animals", "setting": "[1]", "result": "no obvious abnormalities"}, {"measurement": "tolerability", "setting": "[1]", "result": "well tolerated"}]}
